The record followed here is patent US20260308128A1, “BETA-ELEMENE DERIVATIVE CONTAINING PHOTOAFFINITY GROUP DIAZIRINE, AND PREPARATION METHOD AND USE THEREOF AS PHOTOAFFINITY MOLECULAR PROBE” (HANGZHOU NORMAL UNIVERSITY, priority 2022, published 2026).

Experiment [1] relates to Huh1 human liver cancer cells. Description: Tumor cell proliferation inhibition (CCK-8), Huh1. The class given is cell-based. Conditions: for IC50: Homo sapiens, read-out: IC50 Huh1; for IC50 times lower than that of β-elemene: human Huh1 liver cancer cells, versus β-elemene. The procedure: (§1) Human liver cancer cell Huh1, human lung cancer cell A549, and human brain glioma cell U87-MG.
(§2) • (1) A cell laboratory was routinely disinfected and a clean bench was subjected to ultraviolet radiation for more than 30 min. • (2) A culture solution (DMEM) and 0.25% trypsin were preheated in a constant-temperature water bath at 37° C. for 20 min, and dimethyl sulfoxide (DMSO) was refrigerated in a refrigerator at 4° C. for 30 min. • (3) A cryopreserved tube was taken out of a liquid nitrogen storage tank, immediately placed in a 37° C. water bath and shaken rapidly until s cryopreserved liquid was completely thawed. • (4) A cell suspension was transferred into a centrifuge tube, the culture solution was slowly added thereto, and the centrifuge tube was transferred into a centrifuge for centrifugation (120×g, 5 min). • (5) A cell concentration was adjusted with the culture solution, and resulting adjusted cells were shaken well, and placed in a 37° C., 5% CO2 incubator for culture. • (6) After the cells had attached for 24 h, the culture solution thereof was changed. When a cell density reached 80% to 90%, the cells were digested with trypsin and then subcultured.
(§3) • (1) A A549 cell suspension was adjusted to 5×10^4 cells/mL using a DMEM culture medium. […] The cells were cultured in the incubator for 1 h and an absorbance at 450 nm was measured using a THERMO FISHER Multiskan FC microplate reader. • (5) IBM SPSS Statistics 22.0 software was used to plot an S-shaped dose-survival curve using a non-linear regression model, and a survival rate and an inhibition rate were calculated using the following formulas:
(§4) [formula] [formula] • As: absorbance of the experimental well (culture medium containing cells, CCK-8, and the drug to be tested) • Ac: absorbance of the control well (culture medium containing cells, CCK-8, and no drug to be tested) • Ab: absorbance of the blank wells (culture medium without cells and drug to be tested, CCK-8)
(§5) According to the above experimental method, CCK-8 was used to determine the proliferation inhibitory effects of the isolated and purified β-elemene monomer, elemene photoaffinity probe and control compounds on three human cancer cells, namely A549 human non-small cell lung cancer cells, U87-MG human malignant glioma cells, and Huh1 human liver cancer cells.

The test system of experiment [2] is A549 human non-small cell lung cancer cells. Description: Tumor cell proliferation inhibition (CCK-8), A549. The class given is cell-based. Conditions: for IC50: Homo sapiens, read-out: IC50 A549; for IC50 times lower than that of β-elemene: human A549 lung cancer cells, versus β-elemene. The procedure: as §1, §2, §3, §4, §5
Experiment [3] deals with U87-MG human malignant glioma cells. Description: Tumor cell proliferation inhibition (CCK-8), U87-MG. Conditions: for IC50: Homo sapiens, U-87 MG, 48 h, read-out: IC50 U87; for IC50 times lower than that of β-elemene: human U87-MG malignant glioma cells, versus β-elemene. The class given is cell-based. Here is the method: as §1, §2, §3, §4, §5
Experiment [4] relates to Huh1 liver cancer cells. The experiment is described as follows: Pre-targeted imaging using molecular probe in living cells (365 nm photo-crosslinking, N3-TAMRA click, confocal microscopy). The class given is cell-based, human. Here is the method:
In order to determine whether the molecular probe could enter the cell and explore the binding site of the targeted biomacromolecule thereof, the experiment was conducted as follows.
DMEM culture medium, PBS, 4% paraformaldehyde tissue cell fixative, Triton X-100, 5% BSA blocking solution, DAPI staining solution, Cu2SO4, sodium ascorbate, THPTA, N3-TAMRA
• (1) 10^5 Huh1 liver cancer cells were inoculated into glass-bottomed culture dishes and cultured in a 37° C., 5% CO2 incubator until the cells adhered to wall. • (2) DMEM culture medias containing different drug concentrations were added to the culture dishes and incubated overnight in the 37° C., 5% CO2 incubator. • (3) After removing the drug-containing culture mediums, resulting cells were washed with pre-cooled PBS ([…]) for 3 min, placed on ice, and irradiated at 365 nm for 15 min. • (4) Resulting irradiated cells were treated with 1 mL of 4% paraformaldehyde tissue cell fixative for 15 min, the paraformaldehyde tissue cell fixative was removed, and resulting cells were washed with pre-cooled PBS. • (5) Resulting washed cells were permeabilized with 500 μL of 0.1% Triton X-100 in PBS for 10 min, then blocked with 1 mL of 5% BSA blocking solution for 30 min, the blocking solution was removed, and resulting cells were washed with pre-cooled PBS (3×1 mL). • (6) 200 μL of freshly prepared Click reaction solution (20 μM N3-TAMRA, 400 μM Cu2SO4, 400 μM THPTA, 2 mM sodium ascorbate) was added to washed cells obtained in step • (5), incubated under shaking at room temperature for 2 h, the reaction solution was removed, and resulting cells were washed with pre-cooled PBS (3×1 mL) for 3 min. • (7) 200 μL of DAPI staining solution was added to washed cells obtained in step (6) and stained for 6 min, the staining solution was removed, and resulting cells were washed with pre-cooled PBS (3×1 mL) for 3 min, and then imaged with a laser scanning confocal microscope.
According to the above experimental method, the cell images of the β-elemene photoaffinity probe (Compound 2) and a control Compound 6 and β-elemene were measured.

Read-outs that look alike come from different tables or passages of the source.

Consider `C#CCCC(=O)NCCOCCOCCC(=O)N[C@H](CCC1(C)N=N1)C(=O)N1CCN(CC(=C)[C@@H]2CC[C@@](C)(C=C)[C@H](C(=C)C)C2)CC1` [Compound 1], for which the IC50 in experiment [1] (HuH-1, Huh1 cells, 48 h, CCK-8) came to 18.7 ± 1.54 µM; in experiment [2] (A549 cells, 48 h, CCK-8), 29.3 ± 1.63 µM; in experiment [3] (U87-MG cells, CCK-8) it was 38.7 ± 1.91 µM. Besides, the “IC50 times lower than that of β-elemene” value is recorded as “more than 10 times” in experiment [1] and “more than 5 times” in experiment [2].

Take `C#CCCC(=O)NCCOCCOCCC(=O)N[C@H](CCC1(C)N=N1)C(=O)NCCN1CCN(CC(=C)[C@@H]2CC[C@@](C)(C=C)[C@H](C(=C)C)C2)CC1` [Compound 2]: the IC50 in experiment [1] (HuH-1, Huh1 cells, 48 h, CCK-8) amounted to 20.12 ± 0.16 µM; in experiment [2] (A549 cells, 48 h, CCK-8), 37.8 ± 3.36 µM; in experiment [3] (U87-MG cells, CCK-8), 25.5 ± 4.79 µM. For the same compound, the “IC50 times lower than that of β-elemene” value in experiment [1] is “more than 10 times”; in experiment [2], “more than 5 times”. In addition, the “intracellular Rhodamine Red fluorescence, with UV irradiation” value in experiment [4] (20 μM, with UV irradiation (365 nm, 15 min)) was “strong intracellular Rhodamine Red fluorescence”. Further, the “intracellular Rhodamine Red fluorescence, without UV irradiation” value in experiment [4] (20 μM, without UV irradiation) is “no intracellular Rhodamine Red fluorescence”. Besides, the “binding of the probe to the target” value in experiment [4] (conclusion from competition imaging) is listed as “non-covalent”.

Consider `C#CCCC(=O)NCCOCCOCCC(=O)N[C@H](CCC1(C)N=N1)C(=O)NCCOCCOCCN1CCN(CC(=C)[C@@H]2CC[C@@](C)(C=C)[C@H](C(=C)C)C2)CC1` [Compound 3], for which the IC50 in experiment [1] (HuH-1, Huh1 cells, 48 h, CCK-8) amounted to 22.8 ± 3.07 µM; in experiment [2] (A549 cells, 48 h, CCK-8), 44.6 ± 7.68 µM; in experiment [3] (U87-MG cells, CCK-8), 19.3 ± 3.3 µM. Besides, the “IC50 times lower than that of β-elemene” value in experiment [1] and in experiment [3] was “more than 10 times” each time.

Turning to `C#CCCC(=O)NCCOCCOCCC(=O)N[C@H](CCC1(C)N=N1)C(=O)N1CC2CN(CC(=C)[C@@H]3CC[C@@](C)(C=C)[C@H](C(=C)C)C3)CC2C1` (stereo partly drawn) [Compound 4], the IC50 in experiment [1] (HuH-1, Huh1 cells, 48 h, CCK-8) was found to be 54.5 ± 3.26 µM; in experiment [2] (A549 cells, 48 h, CCK-8) it was 48.4 ± 1.7 µM; in experiment [3] (U87-MG cells, CCK-8) it was 47.2 ± 2.21 µM.

With `C#CCCC(=O)NCCOCCOCCC(=O)N[C@@H](CCC1(C)N=N1)C(=O)NCCOCCOCCN1CC2CN(CC(=C)[C@@H]3CC[C@@](C)(C=C)[C@H](C(=C)C)C3)CC2C1` (stereo partly drawn) [Compound 5], the IC50 turned out to be 17.1 ± 0.8 µM in experiment [1] (HuH-1, 48 h); 28.4 ± 3.36 µM in experiment [2] (A549, 48 h); 14.1 ± 1.72 µM in experiment [3]. Further, the “IC50 times lower than that of β-elemene” value in experiment [1] is reported as “more than 10 times”; in experiment [2], “more than 5 times”; in experiment [3] it was “more than 10 times”.

For the compound `C=C[C@]1(C)CC[C@@H](C(=C)CN2CC3CN(C)CC3C2)C[C@H]1C(=C)C` (stereo partly drawn) [Compound 7], the IC50 came to 24.3 ± 4.02 µM in experiment [1] (HuH-1, 48 h); 43.4 ± 2.14 µM in experiment [2] (A549, 48 h); 23.3 ± 0.84 µM in experiment [3]. Further, the “IC50 times lower than that of β-elemene” value in experiment [1] was “more than 10 times”.

Take `C=C[C@]1(C)CC[C@@H](C(=C)C)C[C@H]1C(=C)C` [β-elemene, reference compound]: the IC50 in experiment [1] (HuH-1, Huh1 cells, 48 h, CCK-8) worked out at 306 ± 31.7 µM; in experiment [2] (A549 cells, 48 h, CCK-8) it was 213 ± 5.29 µM; in experiment [3] (U87-MG cells, CCK-8), 218 ± 9.58 µM. Also, in experiment [4] (competitor β-elemene (50 μM) with Compound 2 (20 μM), UV irradiation), the “intensity of intracellular Rhodamine Red fluorescence of Compound 2 in presence of competitor” value was “greatly weakened”. The competitive binding result in experiment [4] (versus Compound 2, conclusion from competition imaging) is “can competitively bind to Compound 2”.
